Among the data in PubChem BioAssay AID179 (DTP/NCI, 2004) are EC50, IC50 and outcome values, retold here.

For this assay, the system named is CEM cells HIV-1 protection, formazan growth assay. Nature of the assay: NCI AIDS Antiviral Assay. As to conditions: for IC50: measured here: growth of uninfected CEM cells. An outline of the steps: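 Human CEM cells, uninfected and HIV-1-infected, received five drug concentrations, and growth was read by soluble formazan assay. Compounds giving at least 50% protection were retested; reproducible 100% protection defined confirmed active.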

Active and inactive are the calls of the source.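 The calls were made as follows: active = compounds giving half or more protection of infected cells from virus-caused growth loss, again on retest; inactive = the rest.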

`Cc1cc(Nc2ccc(N=Nc3ccc(O)c4ncccc34)cc2)nc(C)n1`: the EC50 is > 200 µM and the IC50 worked out at 6.46 µM.

Take `NS(=O)(=O)c1nnc(NS(=O)(=O)c2ccc(F)cc2)s1`: the EC50 is > 200 µM and the 50% inhibitory concentration (IC50) was > 200 µM.

For the compound `O=C1NN=C2CCCCCCC12` (stereo not given), the EC50 was > 302 µM and the IC50 is > 302 µM.

On to `ON=C(CC(O)(C(F)(F)Cl)C(F)(F)Cl)CC(O)(C(F)(F)Cl)C(F)(F)Cl`, for which the EC50 is > 200 µM and the IC50 stood at 8.71 µM.

As for `CO/N=C(\C(=O)OC(=NC1CCCCC1)NC1CCCCC1)c1csc(NC(c2ccccc2)(c2ccccc2)c2ccccc2)n1`, the EC50 is > 200 µM and the half-inhibitory concentration (IC50) worked out at 52.5 µM.

Turning to `CCCC(=O)Nc1cc(/C=C/C(=O)N2CC(CCl)c3c2cc([N+](=O)[O-])c2ccccc32)n(C)c1` (stereo not given), the EC50 was > 2 µM and the IC50 was 0.794 µM.

Turning to `O=C([O-])C1([n+]2c(-c3ccccc3)cc(-c3ccccc3)cc2-c2ccccc2)CC1`, the EC50 is > 200 µM and the IC50 amounted to 81.3 µM.

For the compound `CCOC(=O)CN1C(=O)S/C(=C2\C(=O)N(C)c3ccccc32)C1=O`, the EC50 is > 200 µM and the IC50 is > 200 µM.

`COc1ccc2c(c1)C(=O)c1ccc(OC)cc1C2=S`: the outcome was inactive.

Take `COC(=O)CC(c1ccccc1)C1(c2ccccc2)SCCS1` (stereo not given): the EC50 was > 7.94 µM and the 50% inhibitory concentration (IC50) is > 7.94 µM.

For the compound `CCCCCCCSCc1nc2ccccc2c(C)[n+]1[O-]`, the EC50 is > 66.1 µM and the IC50 worked out at 50.1 µM.

`CCN(CC)C(=S)N/N=C/c1ccccn1`: the EC50 was > 0.2 µM and the IC50 worked out at 0.00363 µM.

Consider `COc1ccc(C2(C)OC(=O)c3ccccc32)c2ccccc12` (stereo not given), for which the result was inactive.

Take `N#CCCN(CCC#N)c1ccc(/C=C2\N=C(c3ccccc3)N(NC(=O)c3ccncc3)C2=O)cc1`: the EC50 is > 200 µM and the IC50 stood at 191 µM.

Consider `O=c1c(OS(=O)(=O)O)c(-c2ccc(OS(=O)(=O)O)cc2OS(=O)(=O)O)oc2cc(OS(=O)(=O)O)cc(OS(=O)(=O)O)c12`, for which the EC50 was > 100 µM and the IC50 is > 100 µM.

Regarding `O=C(O)c1ccc(Sc2ccccc2)cc1`, the EC50 is > 200 µM and the IC50 was > 200 µM.

In the case of `CCOC(=O)C(CSSCC(NC(C)=O)C(=O)OCC)NC(C)=O` (stereo not given), the EC50 is 81.3 µM and the IC50 was 141 µM.

Consider `CCCCNc1nc(NC2OCC(OC(C)=O)C(OC(C)=O)C2OC(C)=O)c(N=O)c(=O)n1C` (stereo not given), for which the EC50 was > 200 µM and the IC50 is > 200 µM.

For `C#CC(O)/C=C/C(O)CCCC(O)CC#CC(O)C#CCCCCC(O)/C=C/CCCC(=O)CCCCCCCCCCCCCCCC(O)C(O)C#CC(=O)O` (stereo not given), the EC50 is > 50.1 µM and the IC50 stood at 28.2 µM.

For `Cc1ccc([N+](=O)[O-])c2c(NCCC[N+](C)(C)[O-])ccnc12`, the EC50 is > 200 µM and the IC50 turned out to be 28.8 µM.

Regarding `CC(=O)C1C(=O)C(=O)N(c2cccc([N+](=O)[O-])c2)C1=O` (stereo not given), the EC50 is > 200 µM and the IC50 was > 200 µM.

Regarding `O=C(NS(=O)(=O)Nc1ccc(Cl)cc1)OCc1ccc(Cl)cc1Cl`, the EC50 is > 200 µM and the IC50 was determined as 34.7 µM.

For the compound `O=C1CN(c2cccc(Cl)c2)C(=O)CN1NCNN1CC(=O)N(c2cccc(Cl)c2)CC1=O`, the EC50 was > 200 µM and the IC50 was > 200 µM.

Regarding `O=c1[nH]c2ccccc2c(O)c1/C=N/C(=S)NCc1ccccc1`, the EC50 is > 200 µM and the IC50 was > 200 µM.

`CCCCCCCCCc1cc(O)c(O)cc1CCCCCCCCC`: the EC50 is > 100 µM and the IC50 came to 47.9 µM.

On to `O=C(CC(O)(C(F)(F)F)C(F)(F)F)c1cccs1`, for which the EC50 is > 200 µM and the half-inhibitory concentration (IC50) was > 200 µM.

With `CCCCCCc1cc(S(=O)(=O)O)c(O)cc1O`, the EC50 is > 200 µM and the IC50 was > 200 µM.

For the compound `Cc1ccccc1NS(=O)(=O)c1c(N)ncn1C`, the EC50 was > 832 µM and the IC50 is > 832 µM.

Take `O=c1c2ccccc2oc2ccccc12.[Cl][Hg][Cl]`: the EC50 was > 11.2 µM and the IC50 is > 11.2 µM.

Consider `COc1ccc(C2S/C(=C\c3ccccc3O)C(=O)N2NC(=O)Cc2ccccc2)cc1` (stereo not given), for which the EC50 was > 57.5 µM and the IC50 is > 57.5 µM.

As for `NCCN(CCN)/[N+]([O-])=N/O`, the EC50 was > 200 µM and the IC50 is > 200 µM.

Consider `CCN(CC)CCN1CCc2c([nH]c3ccccc23)C1c1cccnc1` (stereo not given), for which the EC50 was > 145 µM and the IC50 is > 145 µM.

In the case of `CCOC(=O)NC(=O)c1cn(C(CC)COC(=O)NCCCCCCNC(=O)OCC(CC)n2cc(C(=O)NC(=O)OCC)c(=O)[nH]c2=O)c(=O)[nH]c1=O` (stereo not given), the result was inactive.

`COC1(OC)C2(Cl)C(Cl)=C(Cl)C1(Cl)C1C(=O)C=CC(=O)C12` (stereo not given): the EC50 is > 60.3 µM and the IC50 was 25.1 µM.

With `O=C1Nc2ccccc2S/C1=C/c1ccccc1`, the EC50 was > 20.4 µM and the half-inhibitory concentration (IC50) was > 20.4 µM.

Take `OC1COC(n2c3ccc(Br)cc3c3ccc4c5ccccc5[nH]c4c32)C(O)C1O` (stereo not given): the EC50 is > 112 µM.

Regarding `O=c1[nH]nc(Cc2ccccc2)n1/N=C/c1ccncc1`, the 50% effective concentration (EC50) was 72.4 µM and the IC50 turned out to be 158 µM.

`Cc1cc(N=Nc2ccc(NC(=O)c3ccc(NC(=O)c4ccccc4)cc3)c3ccc(S(=O)(=O)O)cc23)ccc1N=Nc1ccc2c(O)cc(S(=O)(=O)O)cc2c1`: the EC50 was > 50.1 µM and the half-maximal inhibitory concentration (IC50) is > 50.1 µM.

Regarding `CC(=O)NC(C=O)C(O[C@H](C)C(=O)NC(C)C(=O)NC(CCC(N)=O)C(=O)OCc1ccccc1)C(O)C(O)COC(=O)CCCCCNc1cccc2[nH]c3ccccc3c(=O)c12` (stereo not given in full), the EC50 was > 204 µM and the IC50 stood at 126 µM.

With `O=S(=O)(O)c1ccc(N=Nc2ccc(S(=O)(=O)O)cc2)cc1`, the result was inactive.

Take `Cc1ccccc1N(CCC#N)C1=NN(C(=O)CC(=O)Nc2ccc(Cl)cc2)C(c2ccccc2)C1` (stereo not given): the EC50 is > 501 µM and the IC50 is > 501 µM.

As to `O=[N+]([O-])c1ccc(C2=Nc3ccccc3N=C(c3ccccc3O)C2)cc1`, the EC50 is > 200 µM and the IC50 is > 200 µM.

With `CC(C)=CC(=O)N1CCN(C(=O)C=C(C)C)CC1`, the EC50 was > 501 µM and the half-inhibitory concentration (IC50) is > 501 µM.

For `CC(C)CCC[C@@H](C)C1CCC2[C@@H]3CC=C4C[C@@H](OP(=O)(O)O)CC[C@]4(C)C3CC[C@@]21C` (stereo not given in full), the EC50 is > 28.2 µM and the IC50 is > 28.2 µM.

Consider `O=C1c2cc([N+](=O)[O-])cnc2S(=O)(=O)N1c1ccc(Oc2ccccc2)cc1`, for which the EC50 is > 200 µM and the IC50 is 105 µM.

Regarding `Cc1ccc(O)c(C(c2cc(C)ccc2O)c2cc([N+](=O)[O-])ccc2O)c1`, the outcome was inactive.

For the compound `O=C(NCc1ccccc1O)c1ccc(O)cc1O`, the EC50 was > 200 µM and the IC50 came to 110 µM.

In the case of `O=C(O)CCCc1ccc2c(c1)C(C(=O)O)CC2` (stereo not given), the EC50 was > 200 µM and the IC50 is > 200 µM.

Regarding `CC(=O)NNc1nc(C)c(C(=O)/C=C/c2ccc(Cl)c(Cl)c2)s1`, the EC50 was > 51.3 µM and the IC50 was > 51.3 µM.

Regarding `CCN(CC)CCCn1c(=O)c2cccnc2n2c3c(=O)n(C)c(=O)n(C)c3nc12`, the concentration giving a half-maximal response (EC50) was 25.1 µM and the IC50 worked out at 126 µM.

Take `Oc1ccccc1C=NCc1ccco1`: the outcome was inactive.

The EC50 is the midpoint of the concentration-response curve. One may read the IC50 as the point on the concentration scale where inhibition reaches its midpoint. Read a low IC50 as inhibition by little substance.
